How the values were obtained:
Assay type in all cases: functional, cell-based
[1] = Cytotoxicity against human HCT116 cells assessed as cell viability after 72 hrs by MTT assay; settings: HCT-116, 72 h
[2] = tested on: KB; test: Cytotoxicity against human vincristine-sensitive KB cells assessed as cell viability after 72 hrs by MTT assay
[3] = Cytotoxicity against human KB/VJ300 cells assessed as cell viability after 72 hrs by MTT assay; settings: KB/VJ300, 72 h
[4] = tested on: A549; test: Cytotoxicity against human A549 cells assessed as cell viability after 72 hrs by MTT assay; settings: A549, 72 h
[5] = Cytotoxicity against human KB/VJ300 cells assessed as cell viability after 72 hrs by MTT assay in presence of 0.121 uM vincristine; settings: KB/VJ300, 72 h
[6] = Cytotoxicity against human PC3 cells assessed as cell viability after 72 hrs by MTT assay; settings: PC-3, 72 h
[7] = tested on: MCF7; test: Cytotoxicity against human MCF7 cells assessed as cell viability after 72 hrs by MTT assay; settings: MCF7, 72 h

SMILES | IC50 [1] | IC50 [2] | IC50 [3] | IC50 [4] | IC50 [5] | IC50 [6] | IC50 [7]
CC[C@@]12CCCN3CCc4c(n(c5ccccc45)[C@H](c4ccc5c(c4)N[C@@]46CC[C@]7(CCCN8CC[C@]54[C@@H]87)C[C@H]6C(=O)OC)C1)[C@H]32 | 12.3 µM | 24.2 µM | 37.3 µM | 33.1 µM | 7.8 µM | 11.5 µM | 15.7 µM
C[C@@H](O)[C@]12C=Cn3c4c(c5ccccc53)CCN(CCC1)[C@@H]42 | – | > 25 µg/mL | > 25 µg/mL | – | – | – | –
C[C@H]1O[C@@H]2C[C@]13CCCN1CC[C@]4(C(=O)c5ccccc5N24)[C@H]13 | – | > 25 µg/mL | > 25 µg/mL | – | – | – | –
CCO[C@H]1C[C@@]2([C@@H](C)O)CCCN3CCc4c(n1c1ccccc41)[C@H]32 | – | > 25 µg/mL | > 25 µg/mL | – | – | – | –
CC[C@]1(O)C[C@H]2CN(CCc3c([nH]c4ccccc34)[C@@](C(=O)OC)(c3cc4c(cc3OC)N(C=O)[C@H]3[C@@](O)(C(=O)OC)[C@H](OC(C)=O)[C@]5(CC)C=CCN6CC[C@]43[C@@H]65)C2)C1 [VINCRISTINE] | – | 0.0033 µM | 7.5 µM | – | – | – | –
O=C1OC2C(=O)N3CCC[C@]45CC[C@@]6(Nc7ccccc7[C@@]26[C@@H]34)[C@@H]1C5 (stereo partly specified) | – | > 25 µg/mL | > 25 µg/mL | – | – | – | –
COc1ccc(CCN(C)CCCC(C#N)(c2ccc(OC)c(OC)c2)C(C)C)cc1OC (stereo unspecified) | – | > 25 µg/mL | – | – | – | – | –
COC(=O)[C@@H]1C[C@]23CC[C@@]14Nc1ccccc1[C@@]41CCN(C=C(C=O)C2)[C@@H]31 | – | > 25 µg/mL | > 25 µg/mL | – | – | – | –
COC(=O)[C@@H]1C[C@]23CC[C@@]14Nc1ccccc1[C@@]41CCN(C(=O)C2)[C@@H]31 | – | > 25 µg/mL | > 25 µg/mL | – | – | – | –
CC(=O)[C@@]12CCCN3CCc4c(n(c5ccccc45)[C@@H](O)C1)[C@H]32 | – | > 25 µg/mL | > 25 µg/mL | – | – | – | –
CC[C@@]12CCCN3CCc4c(n(c5ccccc45)[C@H](c4ccc5c(c4)N[C@@]46CC[C@]7(CCCN8CC[C@]54[C@@H]87)C[C@H]6C(=O)O)C1)[C@H]32 | > 25 µg/mL | > 25 µg/mL | > 25 µg/mL | > 25 µg/mL | > 25 µg/mL | > 25 µg/mL | > 25 µg/mL
O=C1OC2CN3CCC[C@]45CC[C@@]6(Nc7ccccc7[C@@]26[C@@H]34)[C@@H]1C5 (stereo partly specified) | – | > 25 µg/mL | > 25 µg/mL | – | – | – | –
COC(=O)[C@@H]1C[C@]23CC[C@@]14Nc1ccccc1[C@@]41CCN(C4=CC(=O)C[C@H]4C2)[C@@H]31 | – | > 25 µg/mL | > 25 µg/mL | – | – | – | –
COC(=O)N1c2c(ccc3c2OCO3)[C@@]23C4CN5CCC[C@]6(CC[C@]12[C@](O)(C6)OC4=O)[C@H]53 (stereo partly specified) | – | > 25 µg/mL | > 25 µg/mL | – | – | – | –
COC(=O)N1c2c(OC)cccc2[C@]23C4C(=O)[C@H]5C[C@@]6(CCCN(C4=O)[C@@H]62)CC[C@]513 (stereo partly specified) | – | > 25 µg/mL | > 25 µg/mL | – | – | – | –
COC(=O)[C@@H]1C[C@@]23CCCN4CC[C@@]5(c6ccc([C@@H]7C[C@@]8([C@@H](C)O)CCCN9CCc%10c(n7c7ccccc%107)[C@H]98)cc6N[C@]15CC2)[C@@H]43 | 25.1 µM | 28.8 µM | > 25 µg/mL | > 25 µg/mL | 13.6 µM | 15.3 µM | 22.3 µM
